According to publication PMC4585259 (Frontiers in Pharmacology, 2015):
Where two headings read alike, the source gives them in different places. One block for each compound: values may come before it.

Target: T1, rNav1.2 sodium channels (Rattus norvegicus, UniProt P04775)
T1 construct: host or cells: HEK-293
Test: QPatch automated patch clamp, inhibition of sodium currents evoked by 5 Hz trains at three extracellular pH values
Format: cell-based
Settings: for class of pH-dependence pattern (cluster analysis): Ward's method on 18 variables of affinity, reversibility, onset; for τoffset / τonset: concentration (lidocaine 300 μM, memantine 30 μM)
Protocol: HEK-293 cells stably expressing rNav1.2 sodium channels were obtained from NeuroSearch (Ballerup, Denmark). The cells were grown in Dulbecco's modified Eagle medium supplemented with 10% FBS. Prior to use, the cells were trypsinized and subsequently kept in suspension in the QPatch cell storage facility in CHO-S- SFM-II medium.
Composition of the extracellular solution was: (in mM): 140 NaCl, 3 KCl, 1 CaCl2 1 MgCl2, 0.1 CdCl2, 20 TEA-Cl, 5 HEPES, adjusted to pH 7.3, Osmolality: 320 mOsm. […] Drugs were synthesized in Gedeon Richter Plc. […] The full list of drugs, with their three-letter codes, concentration, as well as their main therapeutic indication and main mechanism of action are shown in Table 1. […] The choice of concentrations used in this study may seem unusually high.
Data were sampled at a frequency of 25 kHz and filtered at 5 kHz. Junction potential was calculated to be −11 mV and was corrected for. […] Cells having membrane resistance < 500 MOhm, series resistance > 9 MOhm, or capacitance > 22 pF were excluded from analysis. The experimental protocol was also identical to the one used in our previous study: sodium channels were activated by 5 Hz trains of 5 depolarizations (−90 to −10 mV) repeated in every 20 s. In this study, however, the same control–drug-application–washout sequence was repeated four times: at neutral, acidic, alkalic, and again neutral pH. The peak amplitudes of sodium currents throughout the whole experiment are shown plotted against time in Figure 1 and Supplementary Figure 1.
Initial analysis, including subtraction of leak and capacitive artifacts, as well as peak detection were done in the QPatch software. […] All experiments were normalized to the amplitude of the current evoked by the first depolarization of the last train under control conditions. […] For all four drug applications in an experiment, apparent affinity, onset and offset time constants as well as reversibility values were calculated. […] (This method is equivalent to applying the Lineweaver-Burk plot method using a single concentration.) Reversibility values were calculated from control (c), inhibited (i), and wash-out (w) amplitudes as follows: Reversibility = (w-i)/(c-i). Reversibility values should not be regarded as experimental platform-independent properties of compounds. […] However, reversibility values are a valuable source of information regarding physicochemical differences between individual drugs, or between effects of the same drug under different extracellular pH conditions. Onset and offset time constants were determined by single exponential fitting to individual experiments. For neutral pH numerical data were given as the average of the data from the first and the last drug applications. Thin black lines on Figure 1 and Supplemental Figure 1 show the average of five fitted exponentials, (not the exponential fitted to the averaged normalized amplitudes). The numerical values of apparent affinity, onset and offset time constants and reversibility are shown in Table 2, and their relative position is illustrated in Figure 2. Affinity and time constant values were logarithmically transformed for statistics, therefore we show their geometric mean. For recovery data no transformation was done, and we show arithmetic mean values. Significance values were calculated using paired, two-tailed Student's t-test based on five pairs of apparent affinity (log transform), time constant (log transform), or reversibility values obtained from five individual experiments. Because of the large number of comparisons in this study, we accepted p < 0.01 as significant. Cluster analysis was done using Ward's minimum variance method, with Euclidean distance measure. Data were normalized by subtracting the mean (after logarithmic transformation in the case of apparent affinity and time constants), and dividing by the standard deviation.

[1] = pH 6.0, single concentration (lidocaine 300 μM, memantine 30 μM), geometric mean of 5, read-out: apparent affinity
[2] = pH 7.3, single concentration (lidocaine 300 μM, memantine 30 μM), geometric mean of 5, read-out: apparent affinity
[3] = pH 8.6, single concentration (lidocaine 300 μM, memantine 30 μM), geometric mean of 5, read-out: apparent affinity
[4] = pH=6.0, cc 30 mM, read-out: Apparent Affinity
[5] = pH=7.3, cc 30 mM, read-out: Apparent Affinity
[6] = pH=8.6, cc 30 mM, read-out: Apparent Affinity

T1 sequence (P04775 whole entry): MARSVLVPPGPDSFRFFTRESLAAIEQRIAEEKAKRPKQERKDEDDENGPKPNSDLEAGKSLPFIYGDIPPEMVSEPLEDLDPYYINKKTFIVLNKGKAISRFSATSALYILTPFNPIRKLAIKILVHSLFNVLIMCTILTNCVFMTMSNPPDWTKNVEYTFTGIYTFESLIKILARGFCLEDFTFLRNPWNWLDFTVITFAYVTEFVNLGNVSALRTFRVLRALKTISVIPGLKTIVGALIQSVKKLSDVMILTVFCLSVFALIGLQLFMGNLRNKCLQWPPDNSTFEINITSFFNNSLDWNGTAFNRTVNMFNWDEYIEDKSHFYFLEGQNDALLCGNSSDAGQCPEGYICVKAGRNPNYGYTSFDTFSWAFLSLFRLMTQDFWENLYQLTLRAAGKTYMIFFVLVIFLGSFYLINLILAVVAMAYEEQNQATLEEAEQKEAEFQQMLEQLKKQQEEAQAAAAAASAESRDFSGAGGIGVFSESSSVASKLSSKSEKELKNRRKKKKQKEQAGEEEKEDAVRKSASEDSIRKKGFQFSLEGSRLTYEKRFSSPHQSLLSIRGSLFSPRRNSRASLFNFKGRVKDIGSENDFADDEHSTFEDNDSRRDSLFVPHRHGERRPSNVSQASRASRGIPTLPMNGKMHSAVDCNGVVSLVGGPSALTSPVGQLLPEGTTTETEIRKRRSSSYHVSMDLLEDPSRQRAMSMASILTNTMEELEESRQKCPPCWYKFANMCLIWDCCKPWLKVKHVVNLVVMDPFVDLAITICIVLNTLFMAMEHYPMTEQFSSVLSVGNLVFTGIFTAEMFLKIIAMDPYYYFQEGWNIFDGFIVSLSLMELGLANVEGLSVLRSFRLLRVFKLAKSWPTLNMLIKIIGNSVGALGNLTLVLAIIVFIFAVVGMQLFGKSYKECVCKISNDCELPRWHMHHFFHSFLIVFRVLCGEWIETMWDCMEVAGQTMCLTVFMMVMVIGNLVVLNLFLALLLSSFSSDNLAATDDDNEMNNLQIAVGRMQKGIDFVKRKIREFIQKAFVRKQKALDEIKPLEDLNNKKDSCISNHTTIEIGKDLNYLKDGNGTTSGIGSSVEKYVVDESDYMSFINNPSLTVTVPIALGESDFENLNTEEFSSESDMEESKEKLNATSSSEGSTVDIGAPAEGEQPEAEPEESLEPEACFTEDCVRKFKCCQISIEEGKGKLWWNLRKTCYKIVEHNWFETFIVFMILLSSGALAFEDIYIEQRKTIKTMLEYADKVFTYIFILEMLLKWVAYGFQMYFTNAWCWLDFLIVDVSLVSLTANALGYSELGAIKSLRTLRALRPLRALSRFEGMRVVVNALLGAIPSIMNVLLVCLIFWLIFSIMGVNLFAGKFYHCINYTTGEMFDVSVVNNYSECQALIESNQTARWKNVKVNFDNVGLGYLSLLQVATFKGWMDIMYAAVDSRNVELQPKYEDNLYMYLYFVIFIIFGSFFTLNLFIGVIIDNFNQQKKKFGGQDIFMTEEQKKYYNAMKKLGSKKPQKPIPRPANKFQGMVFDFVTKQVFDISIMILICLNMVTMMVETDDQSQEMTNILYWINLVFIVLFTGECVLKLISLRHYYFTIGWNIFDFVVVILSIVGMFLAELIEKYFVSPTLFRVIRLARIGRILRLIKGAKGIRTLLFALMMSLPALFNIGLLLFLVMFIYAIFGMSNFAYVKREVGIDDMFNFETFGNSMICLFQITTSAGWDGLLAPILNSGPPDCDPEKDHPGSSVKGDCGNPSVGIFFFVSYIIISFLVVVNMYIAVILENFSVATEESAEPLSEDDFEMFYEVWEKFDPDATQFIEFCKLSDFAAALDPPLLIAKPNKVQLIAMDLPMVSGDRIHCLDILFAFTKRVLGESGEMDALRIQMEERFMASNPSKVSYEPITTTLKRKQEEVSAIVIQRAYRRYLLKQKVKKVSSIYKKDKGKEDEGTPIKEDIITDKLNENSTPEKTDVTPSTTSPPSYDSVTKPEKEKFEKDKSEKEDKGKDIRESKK

Compound: CNCCC(Oc1ccccc1OC)c1ccccc1 (stereo not drawn) [nisoxetine]
Kd (Apparent Affinity, pH=6.0, cc 100 mM): 210 µM
Kd (Apparent Affinity, pH=7.3, cc 100 mM): 80.1 µM
Kd (Apparent Affinity, pH=8.6, cc 100 mM): 28.6 µM
class of pH-dependence pattern (cluster analysis): Class F
Kd (apparent affinity, pH 6.0, single concentration (lidocaine 300 μM, memantine 30 μM), geometric mean of 5): 210 µM
Kd (apparent affinity, pH 7.3, single concentration (lidocaine 300 μM, memantine 30 μM), geometric mean of 5): 80.1 µM
Kd (apparent affinity, pH 8.6, single concentration (lidocaine 300 μM, memantine 30 μM), geometric mean of 5): 28.6 µM
Ratio Reversibility (pH 6.0/7.3, cc 100 mM): 1.076
Ratio Tau Offset (pH 6.0/7.3, cc 100 mM): 0.636
Ratio Tau Onset (pH 6.0/7.3, cc 100 mM): 0.550
log Ratio App Aff (pH 6.0/7.3, cc 100 mM): 0.419
Ratio Reversibility (pH 6.0/8.6, cc 100 mM): 1.973
Ratio Tau Offset (pH 6.0/8.6, cc 100 mM): 0.947
Ratio Tau Onset (pH 6.0/8.6, cc 100 mM): 1.245
log Ratio App Aff (pH 6.0/8.6, cc 100 mM): 0.867
τoffset (pH 6.0): 19.60 s
τonset (pH 6.0): 13.20 s
Ratio Reversibility (pH 7.3/8.6, cc 100 mM): 1.833
Ratio Tau Offset (pH 7.3/8.6, cc 100 mM): 1.489
Ratio Tau Onset (pH 7.3/8.6, cc 100 mM): 2.263
log Ratio App Aff (pH 7.3/8.6, cc 100 mM): 0.448
τoffset (pH 7.3): 30.82 s
τonset (pH 7.3): 23.99 s
τoffset (pH 8.6): 20.70 s
τonset (pH 8.6): 10.60 s
Reversibility (pH=6.0, cc 100 mM): 0.75
Reversibility (pH=7.3, cc 100 mM): 0.69
Reversibility (pH=8.6, cc 100 mM): 0.38

Compound: Fc1ccc([C@@H]2CCNC[C@H]2COc2ccc3c(c2)OCO3)cc1 [paroxetine]
class of pH-dependence pattern (cluster analysis): Class C
effect of alkalic pH on onset/offset kinetics (in words): acceleration of onset
Ratio Reversibility (pH 6.0/7.3, cc 30 mM): 1.674
Ratio Tau Offset (pH 6.0/7.3, cc 30 mM): 0.896
Ratio Tau Onset (pH 6.0/7.3, cc 30 mM): 1.411
log Ratio App Aff (pH 6.0/7.3, cc 30 mM): 0.413
Ratio Reversibility (pH 6.0/8.6, cc 30 mM): 6.394
Ratio Tau Offset (pH 6.0/8.6, cc 30 mM): 1.191
Ratio Tau Onset (pH 6.0/8.6, cc 30 mM): 2.000
log Ratio App Aff (pH 6.0/8.6, cc 30 mM): 0.762
τoffset (pH 6.0): 33.83 s
τonset (pH 6.0): 47.12 s
Kd [1]: 49.6 µM
Ratio Reversibility (pH 7.3/8.6, cc 30 mM): 3.820
Ratio Tau Offset (pH 7.3/8.6, cc 30 mM): 1.329
Ratio Tau Onset (pH 7.3/8.6, cc 30 mM): 1.418
log Ratio App Aff (pH 7.3/8.6, cc 30 mM): 0.349
τoffset (pH 7.3): 37.75 s
τonset (pH 7.3): 33.39 s
Kd [2]: 19.2 µM
τoffset (pH 8.6): 28.40 s
τonset (pH 8.6): 23.55 s
Kd [3]: 8.57 µM
Reversibility (pH=6.0, cc 30 mM): 0.65
Kd [4]: 49.6 µM
Reversibility (pH=7.3, cc 30 mM): 0.39
Kd [5]: 19.2 µM
Reversibility (pH=8.6, cc 30 mM): 0.10
Kd [6]: 8.57 µM

Compound: O=C1NC(=O)C(c2ccccc2)(c2ccccc2)N1 [phenytoin]
class of pH-dependence pattern (cluster analysis): Class A
Ratio Reversibility (pH 6.0/7.3, cc 300 mM): 1.014
Ratio Tau Offset (pH 6.0/7.3, cc 300 mM): 1.227
Ratio Tau Onset (pH 6.0/7.3, cc 300 mM): 0.985
log Ratio App Aff (pH 6.0/7.3, cc 300 mM): 0.026
Ratio Reversibility (pH 6.0/8.6, cc 300 mM): 1.313
Ratio Tau Offset (pH 6.0/8.6, cc 300 mM): 0.993
Ratio Tau Onset (pH 6.0/8.6, cc 300 mM): 0.650
log Ratio App Aff (pH 6.0/8.6, cc 300 mM): 0.109
τoffset (pH 6.0): 21.26 s
τonset (pH 6.0): 13.00 s
Kd [1]: 830 µM
Ratio Reversibility (pH 7.3/8.6, cc 300 mM): 1.295
Ratio Tau Offset (pH 7.3/8.6, cc 300 mM): 0.809
Ratio Tau Onset (pH 7.3/8.6, cc 300 mM): 0.660
log Ratio App Aff (pH 7.3/8.6, cc 300 mM): 0.083
τoffset (pH 7.3): 17.32 s
τonset (pH 7.3): 13.20 s
Kd [2]: 781 µM
τoffset (pH 8.6): 21.40 s
τonset (pH 8.6): 20.00 s
Kd [3]: 646 µM
Reversibility (pH=6.0, cc 300 mM): 0.83
Kd (pH=6.0, cc 300 mM, read-out: Apparent Affinity): 830 µM
Reversibility (pH=7.3, cc 300 mM): 0.82
Kd (pH=7.3, cc 300 mM, read-out: Apparent Affinity): 781 µM
Reversibility (pH=8.6, cc 300 mM): 0.63
Kd (pH=8.6, cc 300 mM, read-out: Apparent Affinity): 646 µM

Compound: Nc1nc2ccc(OC(F)(F)F)cc2s1 [riluzole]
class of pH-dependence pattern (cluster analysis): Class G
τoffset (pH 6.0): 23.60 s
τonset (pH 6.0): 9.20 s
τoffset (pH 7.3): 21.40 s
τonset (pH 7.3): 9.60 s
τoffset (pH 8.6): 23.40 s
τonset (pH 8.6): 10.40 s
Reversibility (pH=6.0, cc 30 mM): 0.45
Reversibility (pH=7.3, cc 30 mM): 0.73
Reversibility (pH=8.6, cc 30 mM): 0.45

Now from value to compound, other results behind:

class of pH-dependence pattern (cluster analysis): Class G
alkalization-induced recovery (neutral-to-alkalic solution exchange, in words): prominent alkalization-induced recovery
reversibility at all three pH values (pH 6.0, 7.3 and 8.6): below 0.6
τoffset (pH 6.0): 13.20 s
τonset (pH 6.0): 12.60 s
Kd [1]: 38.2 µM
τoffset (pH 7.3): 13.50 s
τonset (pH 7.3): 14.40 s
Kd [2]: 17.4 µM
τoffset (pH 8.6): 16.00 s
τonset (pH 8.6): 14.60 s
Kd [3]: 28.9 µM
Compound: CCc1nn(CCCN2CCN(c3cccc(Cl)c3)CC2)c(=O)n1CCOc1ccccc1 [nefazodone]
Ratio Reversibility (pH 6.0/7.3, cc 30 mM): 0.854
Ratio Tau Offset (pH 6.0/7.3, cc 30 mM): 0.978
Ratio Tau Onset (pH 6.0/7.3, cc 30 mM): 0.875
log Ratio App Aff (pH 6.0/7.3, cc 30 mM): 0.341
Ratio Reversibility (pH 6.0/8.6, cc 30 mM): 1.152
Ratio Tau Offset (pH 6.0/8.6, cc 30 mM): 0.825
Ratio Tau Onset (pH 6.0/8.6, cc 30 mM): 0.863
log Ratio App Aff (pH 6.0/8.6, cc 30 mM): 0.122
Ratio Reversibility (pH 7.3/8.6, cc 30 mM): 1.349
Ratio Tau Offset (pH 7.3/8.6, cc 30 mM): 0.844
Ratio Tau Onset (pH 7.3/8.6, cc 30 mM): 0.986
log Ratio App Aff (pH 7.3/8.6, cc 30 mM): -0.220
Reversibility (pH=6.0, cc 30 mM): 0.51
Kd [4]: 38.2 µM
Reversibility (pH=7.3, cc 30 mM): 0.59
Kd [5]: 17.4 µM
Reversibility (pH=8.6, cc 30 mM): 0.44
Kd [6]: 28.9 µM

class of pH-dependence pattern (cluster analysis): Class A
τoffset (pH 6.0): 29.60 s
τonset (pH 6.0): 12.00 s
Kd [1]: 206 µM
τoffset (pH 7.3): 24.20 s
τonset (pH 7.3): 19.00 s
Kd [2]: 225 µM
τoffset (pH 8.6): 17.80 s
τonset (pH 8.6): 18.00 s
Kd [3]: 243 µM
Compound: COc1ccccc1OCC(O)CN1CCN(CC(=O)Nc2c(C)cccc2C)CC1 (stereo not drawn) [ranolazine]
Ratio Reversibility (pH 6.0/7.3, cc 100 mM): 0.873
Ratio Tau Offset (pH 6.0/7.3, cc 100 mM): 1.223
Ratio Tau Onset (pH 6.0/7.3, cc 100 mM): 0.632
log Ratio App Aff (pH 6.0/7.3, cc 100 mM): -0.038
Ratio Reversibility (pH 6.0/8.6, cc 100 mM): 1.042
Ratio Tau Offset (pH 6.0/8.6, cc 100 mM): 1.663
Ratio Tau Onset (pH 6.0/8.6, cc 100 mM): 0.667
log Ratio App Aff (pH 6.0/8.6, cc 100 mM): -0.072
Ratio Reversibility (pH 7.3/8.6, cc 100 mM): 1.194
Ratio Tau Offset (pH 7.3/8.6, cc 100 mM): 1.360
Ratio Tau Onset (pH 7.3/8.6, cc 100 mM): 1.056
log Ratio App Aff (pH 7.3/8.6, cc 100 mM): -0.034
Reversibility (pH=6.0, cc 100 mM): 0.76
Kd (pH=6.0, cc 100 mM, read-out: Apparent Affinity): 206 µM
Reversibility (pH=7.3, cc 100 mM): 0.88
Kd (pH=7.3, cc 100 mM, read-out: Apparent Affinity): 225 µM
Reversibility (pH=8.6, cc 100 mM): 0.73
Kd (pH=8.6, cc 100 mM, read-out: Apparent Affinity): 243 µM
